Measurements reported in US10947271B2, “Antibacterial agents” (THE UNIVERSITY OF QUEENSLAND, priority 2014, dated 2021).

Assays:
[1] = system: Staphylococcus aureus MRSA ATCC 43300; assay: MIC assay, S. aureus MRSA ATCC 43300; format: cell-based; conditions: 24 h incubation, visual reading
Outline: (§1)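 Twofold broth microdilution in Mueller Hinton broth; compounds tested from 8 μg/ml to 0.003 μg/ml. Mid-log cultures were inoculated at 5×10e5 CFU/mL and incubated 24 h at 37° C. MIC was the lowest concentration with no visible growth.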

[2] = system: Streptococcus pneumoniae MDR ATCC 700677; assay: MIC assay, S. pneumoniae MDR ATCC 700677; format: cell-based; conditions: 24 h incubation, visual reading
Outline: as §1

[3] = system: Enterococcus faecium MDR Van A ATCC 51559; assay: MIC assay, E. faecium MDR Van A ATCC 51559; format: cell-based; conditions: 24 h incubation, visual reading
Outline: as §1

[4] = system: MRSA (Strain ATCC 43300); assay: Murine thigh infection model (MRSA); format: in vivo, Staphylococcus aureus; conditions: neutropenic CD1 mice
Description: Summary: Adult (8 week old) female CD1 mice were made neutropenic by two injections of cyclophosphamide 4 days and 1 day prior to infection. An inoculum of 10^5 cfu MRSA (Strain ATCC 43300) was injected intramuscularly into both left and right thighs of all mice. […] After an additional two hours, a 50 μL sample of blood was obtained from the tail bleed to analyse for presence of antibiotic compound. […] Thighs were then removed, weighed and homogenised in a fixed volume of saline. The homogenate solution was filtered, diluted and seeded onto agar plates, which were incubated overnight at 37° C. Colony counts were used to establish the cfu in the thigh homogenates, the cfu/thigh, and the cfu/g of thigh.
Compound preparation: Cyclophosphamide monohydrate (Sigma) was dissolved in sterile saline to a concentration of 30 mg/mL. Likewise, vancomycin (Sigma) and MCC compounds were also dissolved in sterile saline to a final concentration of 60 mg/mL and 18.5 mg/mL respectively. All compounds were prepared in low binding Eppendorf tubes and kept at −20° C. until used.
In vivo experimental assay: Eight week old female outbred CD1 mice (UQBR-AIBN) were rendered neutropenic by injecting two doses of cyclophosphamide intraperitoneally 4 days (150 mg/kg) and 1 day (100 mg/kg) prior to experimental infection. The infection model using MRSA was established by intramuscular injection of 50 μL of early-log-phase bacterial MRSA suspension (around 2×10^6 cfu/mL) in saline into both thigh muscles. […] Untreated animals received equivalent volume of saline (Baxter). The mice were monitored for signs of normal behaviour (i.e. grooming, eating, drinking, sleeping, and alertness) during and following dosing. Two hours after saline/antibiotic treatment, 0.05 mL of blood was collected by tail incision. 24 hours after MRSA infection, mice were euthanized and blood collected from the heart by cardiac puncture (saline group) or by tail incision (Vancomycin and MCC compound treated groups) as outlined in FIG. 1. For each mouse, both thighs were collected aseptically by cutting the leg at the hip and knee, placed in 10 mL of cold sterile saline and the individual weight of each thigh recorded.
Preparation of injectable MRSA solution: An MRSA subculture bacterial isolate (ATCC43300) was taken from the storage at −80° C. and freshly seeded on agar plates for overnight (O/N) growth. From the O/N culture preparation, a single colony was diluted into 10-12 mL of Mueller Hinton broth (MHB) and incubated O/N at 37° C. A log-phase subculture was obtained by adding 100 μL of O/N subculture in 10 mL MHB and incubated for a further 2-3 hours. Finally, the OD600 value of the bacterial suspension was determined and the colony forming units per millilitre (cfu/mL) extrapolated. A full dilution of the bacterial cell suspension in saline was achieved by washing (3220×g for 10 min) and the OD600 in saline determined. The suspension was then diluted out accordingly in order to achieve a 2×10^6 cfu/mL solution (10^5 cfu in 50 μL/thigh).
Thus, 10 μL of the injectable MRSA suspension was diluted down to 10-1000 fold, each dilution plated out onto agar plates and incubated at 37° C. for 24 hours.
Thigh homogenates and CFU determination: Thighs were homogenized at 20,000 rpm for 15 seconds using a Polytron MR2500E using a […] probe (all Kinematica).

[5] = single subcutaneous dose 10 mg/kg
[6] = single subcutaneous dose 50 mg/kg

With `CCCCCCCC(=O)N[C@@H](CCCCN)C(=O)NCCCNC(=O)[C@H]1NC(=O)[C@H]2NC(=O)[C@H](NC(=O)[C@@H]3NC(=O)[C@H](CC(N)=O)NC(=O)[C@H](NC(=O)[C@@H](CC(C)C)NC)[C@H](O)c4ccc(c(Cl)c4)Oc4cc3cc(c4O[C@@H]3O[C@H](CO)[C@@H](O)[C@H](O)[C@H]3O[C@H]3C[C@](C)(N)[C@H](O)[C@H](C)O3)Oc3ccc(cc3Cl)[C@H]2O)c2ccc(O)c(c2)-c2c(O)cc(O)cc21` [MCC_005202] the “Minimum Inhibitory Concentration (MIC) Staph. aureus ATCC43300” value [1] was “xxx (xxx = 0.1-<1)”, the “Minimum Inhibitory Concentration (MIC) S. pneumoniae ATCC 700677” value [2] was “xxx (xxx = 0.1-<1)” and the “Minimum Inhibitory Concentration (MIC) E. faecium ATCC51559” value [3] was “x (x = >4)”. For the same compound, the “Average Reduction log Δcfu MRSA/thigh after 26 h” value [4, 5] was “xx (xx = 2-4)”.

`CCCCCCCCC(=O)N[C@@H](CCCCN)C(=O)N[C@@H](CCCCNC(=O)[C@H]1NC(=O)[C@H]2NC(=O)[C@H](NC(=O)[C@@H]3NC(=O)[C@H](CC(N)=O)NC(=O)[C@H](NC(=O)[C@@H](CC(C)C)NC)[C@H](O)c4ccc(c(Cl)c4)Oc4cc3cc(c4O[C@@H]3O[C@H](CO)[C@@H](O)[C@H](O)[C@H]3O[C@H]3C[C@](C)(N)[C@H](O)[C@H](C)O3)Oc3ccc(cc3Cl)[C@H]2O)c2ccc(O)c(c2)-c2c(O)cc(O)cc21)C(=O)O` [MCC_005223] was tested, and the “Minimum Inhibitory Concentration (MIC) Staph. aureus ATCC43300” value [1] was “xxx (xxx = 0.1-<1)”, the “Minimum Inhibitory Concentration (MIC) S. pneumoniae ATCC 700677” value [2] was “xx (xx = 1-4)” and the “Minimum Inhibitory Concentration (MIC) E. faecium ATCC51559” value [3] was “x (x = >4)”. The “Average Reduction log Δcfu MRSA/thigh after 26 h” value [4, 5] was “x (x = 0-2)”.

`CCCCCCCCC(=O)N[C@@H](CCCCN)C(=O)N[C@@H](CCCCN)C(=O)N[C@@H](CCCCNC(=O)[C@H]1NC(=O)[C@H]2NC(=O)[C@H](NC(=O)[C@@H]3NC(=O)[C@H](CC(N)=O)NC(=O)[C@H](NC(=O)[C@@H](CC(C)C)NC)[C@H](O)c4ccc(c(Cl)c4)Oc4cc3cc(c4O[C@@H]3O[C@H](CO)[C@@H](O)[C@H](O)[C@H]3O[C@H]3C[C@](C)(N)[C@H](O)[C@H](C)O3)Oc3ccc(cc3Cl)[C@H]2O)c2ccc(O)c(c2)-c2c(O)cc(O)cc21)C(=O)O` [MCC_005226] was tested, and the “Minimum Inhibitory Concentration (MIC) Staph. aureus ATCC43300” value [1] was “xxx (xxx = 0.1-<1)”, the “Minimum Inhibitory Concentration (MIC) S. pneumoniae ATCC 700677” value [2] was “xxx (xxx = 0.1-<1)” and the “Minimum Inhibitory Concentration (MIC) E. faecium ATCC51559” value [3] was “x (x = >4)”. For the same compound, the “Average Reduction log Δcfu MRSA/thigh after 26 h” value [4, 5] was “x (x = 0-2)”.

In the case of `CNC(CC(C)C)C(=O)NC1C(=O)NC(CC(N)=O)C(=O)NC2C(=O)NC3C(=O)NC(C(=O)NC(C(=O)NCCCNC(=O)C(CCCCN)NC(=O)C(CCCCN)NC(=O)c4ccc(Cl)cc4)c4cc(O)cc(O)c4-c4cc3ccc4O)C(O)c3ccc(c(Cl)c3)Oc3cc2cc(c3OC2OC(CO)C(O)C(O)C2OC2CC(C)(N)C(O)C(C)O2)Oc2ccc(cc2Cl)C1O` (centres unmarked) [MCC_005362], the “Minimum Inhibitory Concentration (MIC) Staph. aureus ATCC43300” value [1] is reported as “xxx (xxx = 0.1-<1)”, the “Minimum Inhibitory Concentration (MIC) S. pneumoniae ATCC 700677” value [2] is reported as “xxx (xxx = 0.1-<1)” and the “Minimum Inhibitory Concentration (MIC) E. faecium ATCC51559” value [3] is reported as “xx (xx = 1-4)”. For the same compound, the “Average Reduction log Δcfu MRSA/thigh after 26 h” value [4, 5] was “x (x = 0-2)” and the “Average Reduction log Δcfu MRSA/thigh after 26 h” value [4, 6] was “xxx (xxx = 4-6)”.

`CNC(CC(C)C)C(=O)NC1C(=O)NC(CC(N)=O)C(=O)NC2C(=O)NC3C(=O)NC(C(=O)NC(C(=O)NCCCNC(=O)C(CCCCN)NC(=O)C(CCCCN)NC(=O)CC4CCCCC4)c4cc(O)cc(O)c4-c4cc3ccc4O)C(O)c3ccc(c(Cl)c3)Oc3cc2cc(c3OC2OC(CO)C(O)C(O)C2OC2CC(C)(N)C(O)C(C)O2)Oc2ccc(cc2Cl)C1O` (centres unmarked) [MCC_005363] was tested, and the “Minimum Inhibitory Concentration (MIC) Staph. aureus ATCC43300” value [1] was “xxx (xxx = 0.1-<1)”, the “Minimum Inhibitory Concentration (MIC) S. pneumoniae ATCC 700677” value [2] was “xxx (xxx = 0.1-<1)” and the “Minimum Inhibitory Concentration (MIC) E. faecium ATCC51559” value [3] was “x (x = >4)”. The “Average Reduction log Δcfu MRSA/thigh after 26 h” value [4, 6] was “xxx (xxx = 4-6)”.

With `CNC(CC(C)C)C(=O)NC1C(=O)NC(CC(N)=O)C(=O)NC2C(=O)NC3C(=O)NC(C(=O)NC(C(=O)NCCCNC(=O)C(CCCCN)NC(=O)C(CCCCN)NC(=O)c4ccc(Oc5ccccc5)cc4)c4cc(O)cc(O)c4-c4cc3ccc4O)C(O)c3ccc(c(Cl)c3)Oc3cc2cc(c3OC2OC(CO)C(O)C(O)C2OC2CC(C)(N)C(O)C(C)O2)Oc2ccc(cc2Cl)C1O` (centres unmarked) [MCC_005364] the “Minimum Inhibitory Concentration (MIC) Staph. aureus ATCC43300” value [1] was “xxxxx (xxxxx = <0.01)”, the “Minimum Inhibitory Concentration (MIC) S. pneumoniae ATCC 700677” value [2] was “xxxx (xxxx = 0.01-<0.1)” and the “Minimum Inhibitory Concentration (MIC) E. faecium ATCC51559” value [3] was “xx (xx = 1-4)”. For the same compound, the “Average Reduction log Δcfu MRSA/thigh after 26 h” value [4, 5] was “xx (xx = 2-4)”.

In the case of `CNC(CC(C)C)C(=O)NC1C(=O)NC(CC(N)=O)C(=O)NC2C(=O)NC3C(=O)NC(C(=O)NC(C(=O)NCCCNC(=O)C(CCCCN)NC(=O)C(CCCCN)NC(=O)CCCOc4ccccc4)c4cc(O)cc(O)c4-c4cc3ccc4O)C(O)c3ccc(c(Cl)c3)Oc3cc2cc(c3OC2OC(CO)C(O)C(O)C2OC2CC(C)(N)C(O)C(C)O2)Oc2ccc(cc2Cl)C1O` (centres unmarked) [MCC_005365], the “Minimum Inhibitory Concentration (MIC) Staph. aureus ATCC43300” value [1] is reported as “xxx (xxx = 0.1-<1)”, the “Minimum Inhibitory Concentration (MIC) S. pneumoniae ATCC 700677” value [2] is reported as “xxx (xxx = 0.1-<1)” and the “Minimum Inhibitory Concentration (MIC) E. faecium ATCC51559” value [3] is reported as “x (x = >4)”. The “Average Reduction log Δcfu MRSA/thigh after 26 h” value [4, 6] was “xx (xx = 2-4)”.

For `CCCCCCCCCC(=O)N[C@@H](CCCNC(=N)N)C(=O)NCCCNC(=O)[C@H]1NC(=O)[C@H]2NC(=O)[C@H](NC(=O)[C@@H]3NC(=O)[C@H](CC(N)=O)NC(=O)[C@H](NC(=O)[C@@H](CC(C)C)NC)[C@H](O)c4ccc(c(Cl)c4)Oc4cc3cc(c4O[C@@H]3O[C@H](CO)[C@@H](O)[C@H](O)[C@H]3O[C@H]3C[C@](C)(N)[C@H](O)[C@H](C)O3)Oc3ccc(cc3Cl)[C@H]2O)c2ccc(O)c(c2)-c2c(O)cc(O)cc21` [MCC_005481], the “Minimum Inhibitory Concentration (MIC) Staph. aureus ATCC43300” value [1] was “xxxxx (xxxxx = <0.01)”, the “Minimum Inhibitory Concentration (MIC) S. pneumoniae ATCC 700677” value [2] was “xxxx (xxxx = 0.01-<0.1)” and the “Minimum Inhibitory Concentration (MIC) E. faecium ATCC51559” value [3] was “x (x = >4)”. The “Average Reduction log Δcfu MRSA/thigh after 26 h” value [4, 5] was “xxx (xxx = 4-6)”.

In the case of `CCCCCCCC(O)CC(=O)N[C@@H](CCCCN)C(=O)N[C@@H](CCCCN)C(=O)NCCCNC(=O)[C@H]1NC(=O)[C@H]2NC(=O)[C@H](NC(=O)[C@@H]3NC(=O)[C@H](CC(N)=O)NC(=O)[C@H](NC(=O)[C@@H](CC(C)C)NC)[C@H](O)c4ccc(c(Cl)c4)Oc4cc3cc(c4O[C@@H]3O[C@H](CO)[C@@H](O)[C@H](O)[C@H]3O[C@H]3C[C@](C)(N)[C@H](O)[C@H](C)O3)Oc3ccc(cc3Cl)[C@H]2O)c2ccc(O)c(c2)-c2c(O)cc(O)cc21` (some centres unmarked) [MCC_005483], the “Minimum Inhibitory Concentration (MIC) Staph. aureus ATCC43300” value [1] is reported as “xxxx (xxxx = 0.01-<0.1)”, the “Minimum Inhibitory Concentration (MIC) S. pneumoniae ATCC 700677” value [2] is reported as “xxxx (xxxx = 0.01-<0.1)” and the “Minimum Inhibitory Concentration (MIC) E. faecium ATCC51559” value [3] is reported as “x (x = >4)”. For the same compound, the “Average Reduction log Δcfu MRSA/thigh after 26 h” value [4, 5] was “xxx (xxx = 4-6)”.

For `CCCCCCCCCC(=O)N[C@@H](CCCCN)C(=O)N[C@@H](CCCCN)C(=O)N1CCC(CNC(=O)[C@H]2NC(=O)[C@H]3NC(=O)[C@H](NC(=O)[C@@H]4NC(=O)[C@H](CC(N)=O)NC(=O)[C@H](NC(=O)[C@@H](CC(C)C)NC)[C@H](O)c5ccc(c(Cl)c5)Oc5cc4cc(c5O[C@@H]4O[C@H](CO)[C@@H](O)[C@H](O)[C@H]4O[C@H]4C[C@](C)(N)[C@H](O)[C@H](C)O4)Oc4ccc(cc4Cl)[C@H]3O)c3ccc(O)c(c3)-c3c(O)cc(O)cc32)CC1` [MCC_005489], the “Minimum Inhibitory Concentration (MIC) Staph. aureus ATCC43300” value [1] was “xxxx (xxxx = 0.01-<0.1)”, the “Minimum Inhibitory Concentration (MIC) S. pneumoniae ATCC 700677” value [2] was “xxxx (xxxx = 0.01-<0.1)” and the “Minimum Inhibitory Concentration (MIC) E. faecium ATCC51559” value [3] was “xx (xx = 1-4)”. The “Average Reduction log Δcfu MRSA/thigh after 26 h” value [4, 5] was “xxx (xxx = 4-6)”.
